Data: patent publication US8710104B2, “Catecholic butanes and use thereof for cancer therapy” (Triact Therapeutics, Inc., priority 2008, dated 2014)

Assays:
ovarian cancer = ovarian cancer patients; topotecan about 1.5 mg/m^2 i.v. days 1-5 of a 21-day course
From the text: This example describes a randomized, blinded, placebo-controlled, multicenter, Phase II study designed to provide a preliminary assessment of the safety and efficacy of combining NDGA with topotecan in patients with ovarian cancer. Approximately about 100—about 800 patients are enrolled, with about 50—about 400 patients being assigned to a treatment group and about 50—about 400 patients assigned to a placebo group. The trial will consist of the administration of intravenous repeating doses of NDGA as described above in Example 11 combined with topotecan at about 1.5 mg/m^2 by intravenous infusion on days 1-5 of a 21-day course, with courses repeating throughout the study. Control patients are administered topotecan with placebo. […] Additional outcome measures are as follows:
Primary outcome measure: progression-free survival.

H1299 NSCLC cells [1] = assay: proliferation of H1299 NSCLC cells; format: cell-based
[2] = test system: subcutaneous HER2 breast tumors (MCNeuA cells); assay: MCNeuA syngeneic breast cancer model, tumor growth; format: in vivo, MMTVneu transgenic mice; details: thrice weekly
Procedure: (§1) MCNeuA cells were implanted in MMTVneu transgenic mice to induce tumor growth. […] Tumor growth was monitored and tumor size was measured at various time points. […] IGF-1R and HER2 phosphorylation were measured by ELISA.

H1975 NSCLC cells = assay: soft agar colony formation, H1975; format: cell-based; details: 5 μM or 30 μM TT-100, 8 days; reduced more at higher dose
Procedure: (§2) Colony formation was assessed and compared with the control cells grown in the absence of TT-100.

[3] = biological target: T1, kinase domain of the EGFR (Homo sapiens, UniProt P00533); assay: RTK activity ELISA, EGFR kinase domain; format: biochemical; details: ATP 10 μM, PTP1B substrate peptide 0.2 μM, 45 minute reaction
T1 construct: recombinant proteins representing the kinase domain of the IGF-1R or EGFR (Cell Signaling Technology, Danvers, Mass.); purchased Cell Signaling Technology, Danvers, Mass
T1 sequence (P00533 712-979 limits assumed): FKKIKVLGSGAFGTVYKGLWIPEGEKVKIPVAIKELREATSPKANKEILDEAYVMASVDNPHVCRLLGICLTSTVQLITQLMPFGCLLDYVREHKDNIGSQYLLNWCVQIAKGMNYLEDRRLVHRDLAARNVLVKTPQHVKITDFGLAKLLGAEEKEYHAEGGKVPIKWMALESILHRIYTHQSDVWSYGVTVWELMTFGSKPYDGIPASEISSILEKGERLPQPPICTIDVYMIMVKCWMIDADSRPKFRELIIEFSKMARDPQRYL
Procedure: (§3) Inhibition of lipoxygenase activity was determined by use of a lipoxygenase inhibitor screening assay kit (Cayman Chemicals, Ann Arbor, Mich.). […] LOX activity was determined by the amount of hydroperoxides produced, as quantified by colorimetric readout. Inhibition of RTK activity was determined by ELISA as follows. […] The reaction was stopped with 50 mM EDTA, and biotin-conjugated substrate was captured on a 96-well streptavidin-coated plate. Tyrosine phosphorylation of captured substrate was determined by incubation with anti-phosphotyrosine antibody conjugated to HRP (Santa Cruz Biotechnology, Santa Cruz, Calif.) and colorimetric readout on a 96 well plate reader.

[4] = biological target: T2, kinase domain of the IGF-1R (Homo sapiens, UniProt P08069); assay: RTK activity ELISA, IGF-1R kinase domain; format: biochemical; details: ATP 10 μM, IRS-1 substrate peptide 0.2 μM, 45 minute reaction
T2 construct: recombinant proteins representing the kinase domain of the IGF-1R or EGFR (Cell Signaling Technology, Danvers, Mass.); purchased Cell Signaling Technology, Danvers, Mass
T2 sequence (P08069 999-1274 limits assumed): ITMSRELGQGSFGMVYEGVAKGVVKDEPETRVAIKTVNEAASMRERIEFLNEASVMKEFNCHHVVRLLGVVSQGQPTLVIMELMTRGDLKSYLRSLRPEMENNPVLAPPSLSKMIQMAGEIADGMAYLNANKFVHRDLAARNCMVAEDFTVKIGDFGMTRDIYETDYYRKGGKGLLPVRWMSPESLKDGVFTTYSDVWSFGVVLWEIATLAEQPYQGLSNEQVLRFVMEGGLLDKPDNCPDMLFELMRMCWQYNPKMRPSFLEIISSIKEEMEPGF
Procedure: as §3

H1299 NSCLC cells [5] = assay: soft agar colony formation, H1299; format: cell-based; details: 5 μM or 30 μM TT-100, 8 days; reduced more at higher dose
Procedure: as §2

IGF-1R = biological target: T3, IGF-1R (Mus musculus, UniProt Q60751); assay: IGF-1R phosphorylation in excised breast tumors by ELISA; format: in vivo, MMTVneu transgenic mice; details: tumor excised on day 28, 24 hrs after the final treatment
T3 construct: from tissue; host or cells: excised subcutaneous MCNeuA breast tumours from MMTVneu transgenic mice
T3 sequence (Q60751 31-1373): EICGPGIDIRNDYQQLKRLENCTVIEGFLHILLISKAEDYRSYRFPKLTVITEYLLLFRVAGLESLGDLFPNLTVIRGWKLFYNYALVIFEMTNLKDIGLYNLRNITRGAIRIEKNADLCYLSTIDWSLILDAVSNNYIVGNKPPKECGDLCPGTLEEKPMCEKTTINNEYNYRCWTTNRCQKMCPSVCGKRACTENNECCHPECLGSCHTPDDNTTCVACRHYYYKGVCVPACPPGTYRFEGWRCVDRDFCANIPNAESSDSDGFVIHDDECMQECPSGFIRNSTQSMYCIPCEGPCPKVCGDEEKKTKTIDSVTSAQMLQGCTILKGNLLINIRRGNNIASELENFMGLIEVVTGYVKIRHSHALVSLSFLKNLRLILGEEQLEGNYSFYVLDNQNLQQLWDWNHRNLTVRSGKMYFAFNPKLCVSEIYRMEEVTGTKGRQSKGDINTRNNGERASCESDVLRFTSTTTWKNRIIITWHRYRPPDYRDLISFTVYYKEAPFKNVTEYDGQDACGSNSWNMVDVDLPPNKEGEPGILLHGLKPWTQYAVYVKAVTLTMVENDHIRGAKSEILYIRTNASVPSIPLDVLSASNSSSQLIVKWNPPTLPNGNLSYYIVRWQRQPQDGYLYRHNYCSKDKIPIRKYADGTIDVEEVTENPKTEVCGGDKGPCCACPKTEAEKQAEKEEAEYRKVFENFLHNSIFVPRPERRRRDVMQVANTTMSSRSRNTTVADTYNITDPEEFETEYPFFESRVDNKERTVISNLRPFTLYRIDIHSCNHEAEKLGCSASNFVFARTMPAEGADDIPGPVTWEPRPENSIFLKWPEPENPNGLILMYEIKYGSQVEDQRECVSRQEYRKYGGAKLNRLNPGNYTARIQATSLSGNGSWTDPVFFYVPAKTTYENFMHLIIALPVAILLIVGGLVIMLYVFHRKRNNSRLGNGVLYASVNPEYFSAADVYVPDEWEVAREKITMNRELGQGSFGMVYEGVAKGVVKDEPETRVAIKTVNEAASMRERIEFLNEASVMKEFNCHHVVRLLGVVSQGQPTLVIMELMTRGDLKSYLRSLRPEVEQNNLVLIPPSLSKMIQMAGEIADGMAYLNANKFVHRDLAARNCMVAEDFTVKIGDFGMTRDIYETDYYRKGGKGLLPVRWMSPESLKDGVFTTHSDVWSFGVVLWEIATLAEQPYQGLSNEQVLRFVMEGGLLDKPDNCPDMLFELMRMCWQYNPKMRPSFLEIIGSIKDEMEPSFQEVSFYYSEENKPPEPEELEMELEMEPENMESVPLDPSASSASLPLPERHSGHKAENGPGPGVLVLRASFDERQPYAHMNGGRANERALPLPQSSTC
Procedure: as §1

HER2 = HER2 phosphorylation in excised breast tumors by ELISA; format: in vivo, MMTVneu transgenic mice; details: tumor excised on day 28, 24 hrs after the final treatment
Procedure: as §1

[6] = test system: H1975 NSCLC cells expressing EGFR T790M mutation; assay: proliferation of Iressa-resistant H1975 NSCLC cells; format: cell-based; details: 10 μM TT-100, 3 days

CC[C@@]1(O)C(=O)OCc2c1cc1n(c2=O)Cc2cc3c(CN(C)C)c(O)ccc3nc2-1 [topotecan]
progression free survival (goal of the study) (ovarian cancer): 3-6 months

COc1cc2ncnc(Nc3ccc(F)c(Cl)c3)c2cc1OCCCN1CCOCC1 [Iressa, Gefitinib, reference compound]
proliferation (percent growth of the control cells), Iressa alone (H1299 NSCLC cells [1]; 1 μM Iressa, 3 days): resistant

CC(Cc1ccc(O)c(O)c1)C(C)Cc1ccc(O)c(O)c1 (stereo not drawn) [TT-100, nordihydroguaiaretic acid]
tumor growth (tumor size) ([2]; 37.5 mg/kg i.p.): inhibited the growth | tumor growth (tumor size) ([2]; 100 mg/kg by gavage (oral)): inhibited the growth | colony formation in soft agar (H1975 NSCLC cells): inhibited colony formation | inhibition of tyrosine kinase activity of purified EGFR [3]: directly inhibits | inhibition of tyrosine kinase activity of purified IGF-1R [4]: directly inhibits | colony formation in soft agar (H1299 NSCLC cells [5]): inhibited colony formation | IGF-1R receptor phosphorylation compared to vehicle-treated control (IGF-1R): significantly inhibited | HER2 receptor phosphorylation compared to vehicle-treated control (HER2): significantly inhibited | proliferation (percent growth of the control cells), TT-100 alone (H1299 NSCLC cells [1]; 10 μM or 20 μM TT-100, 3 days, especially at 20 μM): inhibited the proliferation | reduction of proliferation (percent growth of the control cells) [6]: approximately 50%
